Laboratory results from US9029370B2, “Substituted benzamide derivatives” (Hoffmann-La Roche Inc., priority 2011, dated 2015).
pKd: −log10 of the molar value. Counter-ions that a name gives are not always drawn.

Legend:
rat TAAR1 = rat TAAR1 (Rattus norvegicus (Rat), UniProt Q923Y9); experiment: Radioligand binding assay on rat TAAR1; details: for Ki: rat TAAR1, HEK-293 membranes, second value of the pair (line below), read-out: Ki (μM) mouse/rat
Summary of the method: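 Membranes from HEK293 cells stably expressing rat TAAR1 were incubated 1 hr at 4 °C with ^3[H]-(S)-4-[(ethyl-phenyl-amino)-methyl]-4,5-dihydro-oxazol-2-ylamine; nonspecific binding was defined with 10 μM unlabeled ligand. Compounds were tested at 10 pM to 10 μM in duplicate. Bound radioactivity was read by filtration and scintillation counting.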

mouse TAAR1 = mouse TAAR1 (Mus musculus (Mouse), UniProt Q923Y8); experiment: Radioligand binding assay on mouse TAAR1; details: for Ki: mouse TAAR1, HEK-293 membranes, first value of the pair (before the slash), read-out: Ki (μM) mouse/rat
Summary of the method: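 Membranes from HEK293 cells stably expressing mouse TAAR1, in HEPES-NaOH pH 7.4 with 0.1 mM EDTA, were incubated 1 h at 4°C with tritiated (S)-4-[(ethyl-phenyl-amino)-methyl]-4,5-dihydro-oxazol-2-ylamine and compound (10 pM–10 μM, duplicates). Nonspecific binding defined with 10 μM unlabeled ligand; bound radioactivity by filtration and scintillation counting.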

rat TAAR1, sequence (Q923Y9 whole entry): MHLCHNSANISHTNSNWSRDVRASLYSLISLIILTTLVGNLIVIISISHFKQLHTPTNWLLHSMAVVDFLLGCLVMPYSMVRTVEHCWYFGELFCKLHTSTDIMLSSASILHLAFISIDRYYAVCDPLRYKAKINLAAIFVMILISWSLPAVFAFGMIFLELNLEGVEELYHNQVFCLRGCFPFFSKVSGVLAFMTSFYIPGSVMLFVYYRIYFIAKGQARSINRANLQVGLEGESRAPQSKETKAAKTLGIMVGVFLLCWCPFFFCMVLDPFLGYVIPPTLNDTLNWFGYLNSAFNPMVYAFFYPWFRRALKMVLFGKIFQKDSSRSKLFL
mouse TAAR1, sequence (Q923Y8 whole entry): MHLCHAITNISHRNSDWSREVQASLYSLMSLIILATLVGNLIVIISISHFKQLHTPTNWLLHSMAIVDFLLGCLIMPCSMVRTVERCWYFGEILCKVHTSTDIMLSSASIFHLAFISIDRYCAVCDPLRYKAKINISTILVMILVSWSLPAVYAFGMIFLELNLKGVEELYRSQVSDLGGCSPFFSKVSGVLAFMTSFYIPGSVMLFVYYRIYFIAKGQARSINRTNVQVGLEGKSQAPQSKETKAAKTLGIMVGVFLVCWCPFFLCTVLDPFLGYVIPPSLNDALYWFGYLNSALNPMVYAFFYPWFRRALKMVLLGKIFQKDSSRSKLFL

pKd (rat TAAR1; rat TAAR1 membranes, saturation curve, usual value, read-out: dissociation constant (Kd) of the radioligand) | pKd (mouse TAAR1; mouse TAAR1 membranes, saturation curve, usual value, read-out: dissociation constant (Kd) of the radioligand) | SMILES | Ki (rat TAAR1) [µM] | Ki (mouse TAAR1) [µM]
 |  | O=C(Nc1ccc([C@H]2CNCCO2)c(Cl)c1)c1cnn(-c2ccc(OC(F)F)cc2)c1 [Example 96, (S)—N-(3-Chloro-4-(morpholin-2-yl)phenyl)-1-(4-(difluoromethoxy)phenyl)-1H-pyrazole-4-carboxamide hydrochloride] | 0.0006 | 0.0013
 |  | N#Cc1cc(F)cc(NC(=O)Nc2ccc([C@@H]3CNCCO3)cc2F)c1 [Example 59, 1-(3-Cyano-5-fluoro-phenyl)-3-((R)-2-fluoro-4-morpholin-2-yl-phenyl)-urea] | 0.001 | 0.0018
 |  | O=C(Nc1ccc([C@H]2CNCCO2)c(F)c1)c1cnn(-c2ccc(C(F)(F)F)nc2)c1 [Example 130, (S)—N-(3-Fluoro-4-(morpholin-2-yl)phenyl)-1-(6-(trifluoromethyl)pyridin-3-yl)-1H-pyrazole-4-carboxamide hydrochloride] | 0.0038 | 0.0075
 |  | O=C(Nc1ccc(C2CCCNC2)cc1Cl)c1ccc(Cl)nc1 (racemic) [Example 43, (RS)-6-Chloro-N-(2-chloro-4-piperidin-3-yl-phenyl)-nicotinamide] | 0.367 | 0.0164
~8.64 | ~9.15 | CCN(C[C@H]1COC(N)=N1)c1ccccc1 [^3[H]-(S)-4-[(ethyl-phenyl-amino)-methyl]-4,5-dihydro-oxazol-2-ylamine, reference compound] |  | 
 |  | CCOc1cc(C(=O)Nc2ccc([C@@H]3CNCCO3)c(F)c2)ccn1 [Example 84, (R)-2-Ethoxy-N-(3-fluoro-4-(morpholin-2-yl)phenyl)isonicotinamide hydrochloride] | 0.0047 | 0.0036
 |  | Cn1nc(-c2ccccc2)cc1C(=O)Nc1ccc([C@H]2CNCCO2)cc1F [Example 17, 2-Methyl-5-phenyl-2H-pyrazole-3-carboxylic acid ((S)-2-fluoro-4-morpholin-2-yl-phenyl)-amide] | 0.0128 | 0.0151
 |  | O=C(Nc1ccc(C(F)(F)F)nc1)Nc1ccc([C@@H]2CNCCO2)cc1Cl [Example 49, (R)-1-(2-Chloro-4-(morpholin-2-yl)phenyl)-3-(6-(trifluoromethyl)pyridin-3-yl)urea] | 0.0015 | 0.0021
 |  | Cc1cc([C@@H]2CNCCO2)ccc1NC(=O)c1ccc(Cl)nc1 [Example 42, 6-Chloro-N—((R)-2-methyl-4-morpholin-2-yl-phenyl)-nicotinamide] | 3.99 | 0.028
 |  | O=C(Nc1ccc(Cl)nc1)Nc1ccc(C2CCCNC2)cc1Cl (racemic) [Example 41] | 0.009 | 0.0015
 |  | N#Cc1ccc(OC(F)F)c(NC(=O)Nc2ccc([C@H]3CNCCO3)cc2Br)c1 [Example 61, 1-((S)-2-Bromo-4-morpholin-2-yl-phenyl)-3-(5-cyano-2-difluoromethoxy-phenyl)-urea] | 0.0025 | 0.0018
 |  | CCOc1ccc(C(=O)Nc2ccc([C@H]3CNCCO3)cc2F)cn1 [Example 138, (S)-6-Ethoxy-N-(2-fluoro-4-(morpholin-2-yl)phenyl)nicotinamide] | 0.308 | 0.0042
 |  | N#Cc1cc(Cl)cc(C(=O)Nc2ccc([C@H]3CNCCO3)c(F)c2)n1 [Example 133, (S)-4-Chloro-6-cyano-N-(3-fluoro-4-(morpholin-2-yl)phenyl)picolinamide hydrochloride] | 0.018 | 0.0095
 |  | N#Cc1ccnc(C(=O)Nc2ccc([C@H]3CNCCO3)cc2F)c1 [Example 79, (S)-4-Cyano-N-(2-fluoro-4-(morpholin-2-yl)phenyl)picolinamide hydrochloride] | 0.196 | 0.0022
 |  | Cc1cc(C(=O)Nc2ccc([C@H]3CNCCO3)cc2Cl)cc(C(N)=O)n1 [Example 122, (S)—N4-(2-Chloro-4-(morpholin-2-yl)phenyl)-6-methylpyridine-2,4-dicarboxamide hydrochloride] | 0.758 | 0.14
 |  | O=C(Nc1cnc(C(F)(F)F)nc1)Nc1ccc([C@H]2CNCCO2)cc1Cl [Example 51] | 0.0126 | 0.0067
 |  | Cc1cc([C@@H]2CNCCO2)ccc1NC(=O)Nc1ccc(Cl)nc1 [Example 40, (R)-1-(6-Chloropyridin-3-yl)-3-(2-methyl-4-(morpholin-2-yl)phenyl)urea] | 0.12 | 0.0043
 |  | O=C(Nc1cnc(C(F)(F)F)nc1)Nc1ccc([C@H]2CNCCO2)cc1Br [Example 69, 1-((S)-2-Bromo-4-morpholin-2-yl-phenyl)-3-(2-trifluoromethyl-pyrimidin-5-yl)-urea] | 0.018 | 0.0086

pKd (rat TAAR1; rat TAAR1 membranes, saturation curve, usual value, read-out: dissociation constant (Kd) of the radioligand) | pKd (mouse TAAR1; mouse TAAR1 membranes, saturation curve, usual value, read-out: dissociation constant (Kd) of the radioligand) | SMILES | Ki (rat TAAR1) [µM] | Ki (mouse TAAR1) [µM]
 |  | O=C(Nc1ccc(Cl)cn1)Nc1ccc([C@H]2CNCCO2)cc1Cl [Example 64, (S)-1-(2-Chloro-4-(morpholin-2-yl)phenyl)-3-(5-chloropyridin-2-yl)urea] | 0.003 | 0.0015
 |  | CCOc1cc(C(=O)Nc2ccc([C@H]3CNCCO3)c(Cl)c2)ccn1 [Example 94, (S)—N-(3-Chloro-4-(morpholin-2-yl)phenyl)-2-ethoxyisonicotinamide hydrochloride] | 0.0381 | 0.0033
 |  | Cc1cc(C(=O)Nc2ccc([C@H]3CNCCO3)cc2Cl)cc(C#N)n1 [Example 123, (S)—N-(2-Chloro-4-(morpholin-2-yl)phenyl)-2-cyano-6-methylisonicotinamide hydrochloride] | 0.0474 | 0.0413
 |  | N#Cc1cccc(NC(=O)Nc2ccc([C@@H]3CNCCO3)cc2F)c1F [Example 62, (R)-1-(3-Cyano-2-fluorophenyl)-3-(2-fluoro-4-(morpholin-2-yl)phenyl)urea] | 0.0028 | 0.0031
 |  | O=C(Nc1ccc(C(F)(F)F)cn1)Nc1ccc([C@H]2CNCCO2)cc1Cl [Example 53, (S)-1-(2-Chloro-4-(morpholin-2-yl)phenyl)-3-(5-(trifluoromethyl)pyridin-2-yl)urea] | 0.0017 | 0.0015
 |  | O=C(Nc1ccc([C@@H]2CNCCO2)cc1F)c1cnn(-c2ccc(F)cc2)c1 [Example 21, (R)—N-(2-fluoro-4-(morpholin-2-yl)phenyl)-1-(4-fluorophenyl)-1H-pyrazole-4-carboxamide] | 0.0022 | 0.0032
 |  | Cc1nc(C(=O)Nc2ccc([C@H]3CNCCO3)c(F)c2)ccc1C#N [Example 136, (S)-5-Cyano-N-(3-fluoro-4-(morpholin-2-yl)phenyl)-6-methylpicolinamide hydrochloride] | 0.0585 | 0.0075
 |  | O=C(Nc1ccc(C(F)(F)F)nc1)Nc1ccc([C@H]2CNCCO2)cc1Cl [Example 50, (S)-1-(2-Chloro-4-(morpholin-2-yl)phenyl)-3-(6-(trifluoromethyl)pyridin-3-yl)urea] | 0.0014 | 0.0018
 |  | O=C(Nc1cnc(C(F)(F)F)nc1)Nc1ccc([C@@H]2CNCCO2)cc1Cl [Example 52, 1-((R)-2-Chloro-4-morpholin-2-yl-phenyl)-3-(2-trifluoromethyl-pyrimidin-5-yl)-urea] | 0.0058 | 0.0049
 |  | O=C(Nc1ccc(C(F)(F)F)cn1)Nc1ccc([C@@H]2CNCCO2)cc1Cl [Example 54, (R)-1-(2-Chloro-4-(morpholin-2-yl)phenyl)-3-(5-(trifluoromethyl)pyridin-2-yl)urea] | 0.0018 | 0.003
 |  | O=C(Nc1ccc([C@H]2CNCCO2)c(F)c1)c1cnn(-c2cc(C(F)(F)F)ncn2)c1 [Example 129, (S)—N-(3-Fluoro-4-(morpholin-2-yl)phenyl)-1-(6-(trifluoromethyl)pyrimidin-4-yl)-1H-pyrazole-4-carboxamide hydrochloride] | 0.0025 | 0.0073
 |  | COc1ccc(C#N)cc1NC(=O)Nc1ccc([C@@H]2CNCCO2)cc1Br [Example 57, 1-((R)-2-Bromo-4-morpholin-2-yl-phenyl)-3-(5-cyano-2-methoxy-phenyl)-urea] | 0.0127 | 0.0039
 |  | O=C(Nc1ccc(Cl)nc1)Nc1ccc(C2CCNC2)cc1Cl (racemic) [Example 38, (RS)-1-(6-Chloro-pyridin-3-yl)-3-(2-chloro-4-pyrrolidin-3-yl-phenyl)-urea] | 0.0191 | 0.0029
 |  | O=C(Nc1ccc([C@@H]2CNCCO2)c(Cl)c1)c1cnn(-c2ccc(OC(F)F)cc2)c1 [Example 93, (R)—N-(3-Chloro-4-(morpholin-2-yl)phenyl)-1-(4-(difluoromethoxy)phenyl)-1H-pyrazole-4-carboxamide hydrochloride] | 0.0012 | 0.0005
 |  | O=C(Nc1ccc([C@@H]2CNCCO2)cc1Cl)c1ccn(-c2ccc(F)cc2)n1 [Example 30, (R)—N-(2-Chloro-4-(morpholin-2-yl)phenyl)-1-(4-fluorophenyl)-1H-pyrazole-3-carboxamide] | 0.0012 | 0.032
 |  | Cc1cc(C(=O)Nc2ccc([C@H]3CNCCO3)cc2F)cc(C#N)n1 [Example 113, (S)-2-Cyano-N-(2-fluoro-4-(morpholin-2-yl)phenyl)-6-methylisonicotinamide hydrochloride] | 0.0654 | 0.0481
 |  | N#Cc1ccc(-n2cc(C(=O)Nc3ccc([C@H]4CNCCO4)c(Cl)c3)cn2)cc1 [Example 105, (S)—N-(3-Chloro-4-(morpholin-2-yl)phenyl)-1-(4-cyanophenyl)-1H-pyrazole-4-carboxamide hydrochloride] | 0.0027 | 0.0032
 |  | COc1cc(C(=O)Nc2ccc([C@H]3CNCCO3)cc2F)cc(C(N)=O)n1 [Example 120, (S)—N4-(2-Fluoro-4-(morpholin-2-yl)phenyl)-6-methoxypyridine-2,4-dicarboxamide hydrochloride] | 0.426 | 0.0851
